Measurements reported in patent US9695155B2, “Herbicidal substituted pyrimidinyloxy benzene compounds” (E. I. DU PONT DE NEMOURS AND COMPANY, priority 2013, dated 2017).

Key:
ragweed = test: Test C preemergence; assay type: in vivo, Ambrosia elatior; conditions: Ambrosia artemisiifolia, pre-emergence, preemergence, read-out: Ragweed plant response rating
Summary of the method: (§1)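 Whole-plant greenhouse test with surfactant-containing solvent formulation, applied preemergence to sown loam–sand pots or postemergence to 2–18 cm plants. Scored by eye 13 to 15 days on, 0–100 scale.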

corn [1] = test: Test C postemergence; assay type: in vivo, Zea mays; conditions: Zea mays, post-emergence
Summary of the method: as §1

kochia = test: Test C postemergence; assay type: in vivo, Kochia scoparia; conditions: Bassia scoparia, post-emergence
Summary of the method: as §1

giant foxtail [2] = test: Test C postemergence; assay type: in vivo, Setaria faberii; conditions: Setaria faberi, post-emergence
Summary of the method: as §1

galium = test: Test C postemergence; assay type: in vivo, Galium aparine; conditions: Galium, post-emergence
Summary of the method: as §1

giant foxtail [3] = test: Test A postemergence; assay type: in vivo, Setaria faberii; conditions: Setaria faberi, post-emergence, 240 h, 0 to 100 scale where 0 is no effect and 100 is complete control
Summary of the method: (§2)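 Scoring: eye-based comparison with untreated controls, 0 for no effect through 100 for complete control, at about day 10. Treatments: directed soil spray preemergence; foliar spray postemergence on 2–10 cm plants at the one- to two-leaf stage. Medium: loam soil with sand.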

barnyardgrass = test: Test A preemergence; assay type: in vivo, Echinochloa crus-galli; conditions: Echinochloa crus-galli, pre-emergence, 240 h, 0 to 100 scale where 0 is no effect and 100 is complete control
Summary of the method: as §2

chickweed = test: Test C postemergence; assay type: in vivo, Stellaria media; conditions: Stellaria media, post-emergence
Summary of the method: as §1

corn [4] = test: Test A postemergence; assay type: in vivo, Zea mays; conditions: Zea mays, post-emergence, 240 h, 0 to 100 scale where 0 is no effect and 100 is complete control
Summary of the method: as §2

pigweed [5] = test: Test A postemergence; assay type: in vivo, Amaranthus retroflexus; conditions: Amaranthus retroflexus, post-emergence, 0 to 100 scale where 0 is no effect and 100 is complete control
Summary of the method: as §2

large (Lg) crabgrass = test: Test C preemergence; assay type: in vivo, Digitaria sanguinalis; conditions: Digitaria sanguinalis, pre-emergence
Summary of the method: as §1

pigweed [6] = test: Test A preemergence; assay type: in vivo, Amaranthus retroflexus; conditions: Amaranthus retroflexus, pre-emergence, 0 to 100 scale where 0 is no effect and 100 is complete control
Summary of the method: as §2

lambsquarters = test: Test C preemergence; assay type: in vivo, Chenopodium album; conditions: Chenopodium album, pre-emergence, preemergence, read-out: Lambsquarters plant response rating
Summary of the method: as §1

johnsongrass [7] = test: Test C postemergence; assay type: in vivo, Sorghum halepense; conditions: Sorghum halepense, post-emergence
Summary of the method: as §1

johnsongrass [8] = test: Test C preemergence; assay type: in vivo, Sorghum halepense; conditions: Sorghum halepense, pre-emergence, preemergence, read-out: Johnsongrass plant response rating
Summary of the method: as §1

[9] = 16 g ai/ha, scale 0 to 100 (0 no effect, 100 complete control)
[10] = 62 g ai/ha, scale 0 (no effect) to 100 (complete control)
[11] = 125 g ai/ha, scale 0 (no effect) to 100 (complete control)

For FC(F)(F)COc1cnn(-c2ccccc2Oc2ncc(Cl)cn2)c1 [Compound 138, 5-chloro-2-[2-[4-(2,2,2-trifluoroethoxy)-1H-pyrazol-1-yl]phenoxy]pyrimidine], the pest or weed control at 16 g/ha (ragweed; [9]) was 0%, the pest or weed control at 62 g/ha (ragweed; [10]) was 5% and the pest or weed control at 125 g/ha (ragweed; [11]) was 10%. For the same compound, the plant injury at 16 g/ha (corn [1]; 16 g ai/ha, postemergence, 0 is no effect, 100 is complete control, read-out: Plant response rating (0 to 100), Corn) was 5%, the Corn plant response rating (crop injury, 0 = no effect, 100 = complete kill) at 125 g/ha (corn [1]; 125 g ai/ha, postemergence, visual rating, scale 0 to 100 (0 no effect, 100 complete control)) was 10% and the Corn plant response rating (crop injury, 0 = no effect, 100 = complete kill) at 62 g/ha (corn [1]; Postemergence, 62 g ai/ha, scale 0 to 100 (0 no effect, 100 complete control)) was 5%. For the same compound, the pest or weed control at 16 g/ha (kochia; 16 g ai/ha, postemergence, 0 is no effect, 100 is complete control, read-out: Plant response rating (0 to 100), Kochia) was 80%, the pest or weed control at 125 g/ha (kochia; 125 g ai/ha, postemergence, visual rating, scale 0 to 100 (0 no effect, 100 complete control), read-out: Plant response rating, Kochia) was 95% and the pest or weed control at 62 g/ha (kochia; Postemergence, 62 g ai/ha, scale 0 to 100 (0 no effect, 100 complete control), read-out: Plant response rating, Kochia) was 95%. For the same compound, the pest or weed control at 16 g/ha (giant foxtail [2]; 16 g ai/ha, postemergence, 0 is no effect, 100 is complete control, read-out: Plant response rating (0 to 100), Foxtail, Giant) was 5%, the pest or weed control at 125 g/ha (giant foxtail [2]; 125 g ai/ha, postemergence, visual rating, scale 0 to 100 (0 no effect, 100 complete control), read-out: Plant response rating, Foxtail, Giant) was 50% and the pest or weed control at 62 g/ha (giant foxtail [2]; Postemergence, 62 g ai/ha, scale 0 to 100 (0 no effect, 100 complete control), read-out: Plant response rating, Foxtail, Giant) was 10%. For the same compound, the pest or weed control at 16 g/ha (galium; 16 g ai/ha, postemergence, 0 is no effect, 100 is complete control, read-out: Plant response rating (0 to 100), Galium) was 50%, the pest or weed control at 125 g/ha (galium; 125 g ai/ha, postemergence, visual rating, scale 0 to 100 (0 no effect, 100 complete control), read-out: Plant response rating, Galium) was 85% and the pest or weed control at 62 g/ha (galium; Postemergence, 62 g ai/ha, scale 0 to 100 (0 no effect, 100 complete control), read-out: Plant response rating, Galium) was 65%. For the same compound, the pest or weed control at 125 g/ha (giant foxtail [3]; 125 g ai/ha, read-out: Foxtail, Giant plant response rating) was 90%, the pest or weed control at 500 g/ha (giant foxtail [3]; 500 g ai/ha, read-out: Plant response rating, Foxtail, Giant) was 100% and the pest or weed control at 125 g/ha (barnyardgrass; 125 g ai/ha, read-out: Plant response rating, Barnyardgrass) was 80%. It also gave a pest or weed control at 500 g/ha (barnyardgrass; 500 g ai/ha, read-out: Barnyardgrass plant response rating) of 100%, a pest or weed control at 16 g/ha (chickweed; 16 g ai/ha, postemergence, 0 is no effect, 100 is complete control, read-out: Plant response rating (0 to 100), Chickweed) of 5% and a pest or weed control at 125 g/ha (chickweed; 125 g ai/ha, postemergence, visual rating, scale 0 to 100 (0 no effect, 100 complete control), read-out: Plant response rating, Chickweed) of 55%. For the same compound, the pest or weed control at 62 g/ha (chickweed; Postemergence, 62 g ai/ha, scale 0 to 100 (0 no effect, 100 complete control), read-out: Plant response rating, Chickweed) was 50%, the plant injury at 125 g/ha (corn [4]; 125 g ai/ha, read-out: Corn plant response rating) was 60% and the Corn plant response rating (crop injury, 0 = no effect, 100 = complete kill) at 500 g/ha (corn [4]; 500 g ai/ha) was 90%. It also gave a pest or weed control at 500 g/ha (pigweed [5]; 500 g ai/ha, read-out: Plant response rating, Pigweed) of 100%, a pest or weed control at 125 g/ha (pigweed [5]; 240 h, 125 g ai/ha, read-out: Pigweed plant response rating) of 100% and a pest or weed control at 16 g/ha (large (Lg) crabgrass; 16 g ai/ha, preemergence, scale 0 to 100 (0 no effect, 100 complete control), read-out: Crabgrass, Large plant response rating) of 100%. For the same compound, the pest or weed control at 62 g/ha (large (Lg) crabgrass; 62 g ai/ha, preemergence, scale 0 (no effect) to 100 (complete control), read-out: Crabgrass, Large plant response rating) was 100%, the pest or weed control at 125 g/ha (large (Lg) crabgrass; 125 g ai/ha, preemergence, scale 0 (no effect) to 100 (complete control), read-out: Crabgrass, Large plant response rating) was 100% and the pest or weed control at 31 g/ha (large (Lg) crabgrass; Preemergence, 31 g ai/ha, scale 0 to 100, 0 no effect, 100 complete control, read-out: Plant response rating, Crabgrass, Large) was 90%. It also gave a pest or weed control at 125 g/ha (pigweed [6]; 125 g ai/ha, read-out: Plant response rating, Pigweed) of 90%, a pest or weed control at 500 g/ha (pigweed [6]; 240 h, 500 g ai/ha, read-out: Pigweed plant response rating) of 100% and a pest or weed control at 16 g/ha (lambsquarters; [9]) of 100%. It also gave a pest or weed control at 62 g/ha (lambsquarters; [10]) of 100%, a pest or weed control at 125 g/ha (lambsquarters; [11]) of 100% and a pest or weed control at 16 g/ha (johnsongrass [7]; 16 g ai/ha, postemergence, 0 is no effect, 100 is complete control, read-out: Plant response rating (0 to 100), Johnsongrass) of 5%. The pest or weed control at 125 g/ha (johnsongrass [7]; 125 g ai/ha, postemergence, visual rating, scale 0 to 100 (0 no effect, 100 complete control), read-out: Plant response rating, Johnsongrass) was 10%, the pest or weed control at 62 g/ha (johnsongrass [7]; Postemergence, 62 g ai/ha, scale 0 to 100 (0 no effect, 100 complete control), read-out: Plant response rating, Johnsongrass) was 5% and the pest or weed control at 16 g/ha (johnsongrass [8]; [9]) was 0%. For the same compound, the pest or weed control at 62 g/ha (johnsongrass [8]; [10]) was 40% and the pest or weed control at 125 g/ha (johnsongrass [8]; [11]) was 65%.
